In US20100267561A1, “HERBICIDAL PYRIDAZINONE DERIVATIVES” (priority 2007, published 2010):

Legend:
Assay type in all cases: in vivo
[1] = test system: pigweed (Amaranthus retroflexus); experiment: Test A pre-/postemergence plant response
Outline: (§1)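 Ratings are visual, 0–100, where 100 means complete control and 0 no effect, taken roughly 10 days after treatment by comparison with untreated controls. Formulation: non-phytotoxic solvent mixture with surfactant.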

corn (Zea mays) = experiment: Test A pre-/postemergence plant response
Outline: as §1

[2] = test system: morningglory (Ipomoea coccinea); experiment: Test A pre-/postemergence plant response
Outline: as §1

[3] = test system: large crabgrass (Digitaria sanguinalis); experiment: Test A pre-/postemergence plant response
Outline: as §1

[4] = test system: giant foxtail (Setaria faberi); experiment: Test A pre-/postemergence plant response
Outline: as §1

[5] = test system: wheat (Triticum aestivum); experiment: Test A pre-/postemergence plant response
Outline: as §1

[6] = test system: barnyardgrass (Echinochloa crus-galli); experiment: Test A pre-/postemergence plant response
Outline: as §1

[7] = test system: velvetleaf (Abutilon theophrasti); experiment: Test A pre-/postemergence plant response
Outline: as §1

[8] = test system: ducksalad (Heteranthera limosa); experiment: Test B flooded paddy test plant response
Outline: (§2)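 2-leaf plants; pots flooded 3 cm above soil; compound added to paddy water; depth maintained. Greenhouse 13–15 d. Visual rating vs controls, 0 (no effect) to 100 (complete control); dash = no result.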

rice (Oryza sativa) = experiment: Test B flooded paddy test plant response
Outline: as §2

[9] = test system: umbrella sedge (Cyperus difformis); experiment: Test B flooded paddy test plant response
Outline: as §2

[10] = test system: barnyardgrass (Echinochloa crus-galli); experiment: Test B flooded paddy test plant response
Outline: as §2

[11] = Postemergence, 31 g ai/ha, 0 to 100 scale (0 no effect, 100 complete control)
[12] = Postemergence, 125 g ai/ha, 0 to 100 scale, 0 no effect, 100 complete control
[13] = Preemergence, 31 g ai/ha, 0 to 100 scale, 0 is no effect, 100 is complete control
[14] = Preemergence, 125 g ai/ha, 0 to 100 scale (0 no effect, 100 complete control)
[15] = Flood (flooded paddy test), 62 g ai/ha, scale 0 to 100, 0 no effect, 100 complete control
[16] = Flood (flooded paddy test), 125 g ai/ha, scale 0 to 100, 0 no effect, 100 complete control
[17] = Flood (flooded paddy test), 250 g ai/ha, scale 0 to 100, 0 no effect, 100 complete control
[18] = Flood, 31 g ai/ha, scale 0 to 100

Cc1cc(-c2ccc(Cl)cc2)nn1-c1c(OS(C)(=O)=O)cnn(C)c1=O [Compound 36]
Plant response rating, Pigweed [1, 11]: 0
Plant response rating, Pigweed [1, 12]: 10
Plant response rating, Pigweed [1, 13]: 0
Plant response rating, Pigweed [1, 14]: 30
Plant response rating, Corn (corn (Zea mays); [11]): 50
Plant response rating, Corn (corn (Zea mays); [12]): 80
Plant response rating, Corn (corn (Zea mays); [13]): 50
Plant response rating, Corn (corn (Zea mays); [14]): 80
Plant response rating, Morningglory [2, 12]: 0
Plant response rating, Morningglory [2, 13]: 0
Plant response rating, Morningglory [2, 14]: 0
Plant response rating, Crabgrass, Large [3, 11]: 80
Plant response rating, Crabgrass, Large [3, 12]: 90
Plant response rating, Crabgrass, Large [3, 13]: 70
Plant response rating, Crabgrass, Large [3, 14]: 100
Plant response rating, Foxtail, Giant [4, 11]: 90
Plant response rating, Foxtail, Giant [4, 12]: 90
Plant response rating, Foxtail, Giant [4, 13]: 100
Plant response rating, Foxtail, Giant [4, 14]: 100
Plant response rating, Wheat [5, 11]: 0
Plant response rating, Wheat [5, 12]: 60
Plant response rating, Wheat [5, 13]: 50
Plant response rating, Wheat [5, 14]: 90
Plant response rating, Barnyardgrass [6, 11]: 80
Plant response rating, Barnyardgrass [6, 12]: 100
Plant response rating, Barnyardgrass [6, 13]: 90
Plant response rating, Barnyardgrass [6, 14]: 100
Plant response rating, Velvetleaf [7, 11]: 0
Plant response rating, Velvetleaf [7, 12]: 0
Plant response rating, Velvetleaf [7, 13]: 0
Plant response rating, Velvetleaf [7, 14]: 0
Plant response rating, Ducksalad [8, 15]: 0
Plant response rating, Ducksalad [8, 16]: 0
Plant response rating, Ducksalad [8, 17]: 0
Plant response rating, Ducksalad [8, 18]: 0
Plant response rating, Rice (rice (Oryza sativa); [15]): 0
Plant response rating, Rice (rice (Oryza sativa); [16]): 0
Plant response rating, Rice (rice (Oryza sativa); [17]): 0
Plant response rating, Rice (rice (Oryza sativa); [18]): 0
Plant response rating, Sedge, Umbrella [9, 15]: 0
Plant response rating, Sedge, Umbrella [9, 16]: 0
Plant response rating, Sedge, Umbrella [9, 17]: 0
Plant response rating, Sedge, Umbrella [9, 18]: 0
Plant response rating, Barnyardgrass [10, 15]: 0
Plant response rating, Barnyardgrass [10, 16]: 0
Plant response rating, Barnyardgrass [10, 17]: 0
Plant response rating, Barnyardgrass [10, 18]: 0

CCc1cc(-c2ccc(Cl)cc2)nn1-c1c(OS(C)(=O)=O)cnn(C)c1=O [Compound 39]
Plant response rating, Pigweed [1, 11]: 0
Plant response rating, Pigweed [1, 12]: 0
Plant response rating, Pigweed [1, 13]: 0
Plant response rating, Pigweed [1, 14]: 0
Plant response rating, Corn (corn (Zea mays); [11]): 70
Plant response rating, Corn (corn (Zea mays); [12]): 100
Plant response rating, Corn (corn (Zea mays); [13]): 30
Plant response rating, Corn (corn (Zea mays); [14]): 90
Plant response rating, Morningglory [2, 11]: 0
Plant response rating, Morningglory [2, 12]: 0
Plant response rating, Morningglory [2, 13]: 0
Plant response rating, Morningglory [2, 14]: 0
Plant response rating, Crabgrass, Large [3, 11]: 60
Plant response rating, Crabgrass, Large [3, 12]: 100
Plant response rating, Crabgrass, Large [3, 13]: 60
Plant response rating, Crabgrass, Large [3, 14]: 100
Plant response rating, Foxtail, Giant [4, 11]: 90
Plant response rating, Foxtail, Giant [4, 12]: 100
Plant response rating, Foxtail, Giant [4, 13]: 90
Plant response rating, Foxtail, Giant [4, 14]: 100
Plant response rating, Wheat [5, 11]: 40
Plant response rating, Wheat [5, 12]: 80
Plant response rating, Wheat [5, 13]: 40
Plant response rating, Wheat [5, 14]: 80
Plant response rating, Barnyardgrass [6, 11]: 100
Plant response rating, Barnyardgrass [6, 12]: 100
Plant response rating, Barnyardgrass [6, 13]: 100
Plant response rating, Barnyardgrass [6, 14]: 100
Plant response rating, Velvetleaf [7, 11]: 0
Plant response rating, Velvetleaf [7, 12]: 0
Plant response rating, Velvetleaf [7, 13]: 0
Plant response rating, Velvetleaf [7, 14]: 0
Plant response rating, Ducksalad [8, 15]: 0
Plant response rating, Ducksalad [8, 16]: 0
Plant response rating, Ducksalad [8, 17]: 80
Plant response rating, Ducksalad [8, 18]: 0
Plant response rating, Rice (rice (Oryza sativa); [15]): 0
Plant response rating, Rice (rice (Oryza sativa); [16]): 50
Plant response rating, Rice (rice (Oryza sativa); [17]): 80
Plant response rating, Rice (rice (Oryza sativa); [18]): 0
Plant response rating, Sedge, Umbrella [9, 15]: 0
Plant response rating, Sedge, Umbrella [9, 16]: 0
Plant response rating, Sedge, Umbrella [9, 17]: 85
Plant response rating, Sedge, Umbrella [9, 18]: 0
Plant response rating, Barnyardgrass [10, 15]: 80
Plant response rating, Barnyardgrass [10, 16]: 65
Plant response rating, Barnyardgrass [10, 17]: 85
Plant response rating, Barnyardgrass [10, 18]: 0
